Assay results reported in patent US5278171A, “Azadecalin amides and thioamides as inhibitors of cholesterol biosynthesis” (Merrell Dow Pharmaceuticals Inc., priority 1991, dated 1994).

Assays:
Oxidosqualene cyclase = experiment: Inhibition of Purified Oxidosqualene Cyclase (I10); format: biochemical; settings: purified oxidosqualene cyclase from rat liver microsomes, 10 μM [3H]squalene monoepoxide, pH 7.4, 37° C., 40 minutes
Method: Oxidosqualene cyclase is purified from rat liver microsomes by the sequential methods of: 1) solubilization with the detergent lauryl maltoside and 2) FPLC anion-exchange chromatography. Compounds are tested to determine their ability to inhibit the conversion of squalene monoepoxide to lanosterol catalyzed by the purified oxidosqualene cyclase. The reaction mixture (final volume, 200 μl) contains potassium phosphate buffer (50 mM, pH 7.4), Na2 EDTA (500 μM), Tween 80 (0.1%), [^3 H]squalene monoepoxide (10 μM of the racemic mixture, 50 μCi/μmol), test compound (10 μM) and purified oxidosqualene cyclase (50μg). The reagents, prior to mixing are equilibrated at 37° C. for 10 minutes. The reaction is initiated by adding enzyme. The mixture is incubated for 40 minutes with shaking in a water bath. The reaction is terminated by the addition of 5 ml of CHCl3 /MeOH (2:1, v/v), 0.8 ml of water and 10 μg each of squalene monoepoxide, squalene diepoxide, lanosterol and cholesterol. The organic layer is isolated and evaporated to dryness under nitrogen. […] Radioactivity is quantitated using an in-line scintillation counter.

[1] = system: Oxidosqualene Cyclase in HepG2 Cells; experiment: Inhibition of Oxidosqualene Cyclase in HepG2 Cells (IC50 for the inhibition of [14C]cholesterol biosynthesis); format: cell-based; settings: Homo sapiens, read-out: IC50 HepG2 Cell
Method: 1. Inhibition of Oxidosqualene Cyclase in HepG2 Cells (IC50)
HepG2 cells, obtained from American Type Culture Collection, are seeded into plastic 6-well multiwell dishes and grown to 60-70% confluency in an atmosphere of 5%CO2 at 37° C. using Minimal Essential Media supplemented with 10% fetal bovine serum as culture media. The cells are washed and the media is replaced with one containing 10% lipoprotein-deficient serum instead of 10% fetal bovine serum. Twenty-four hours later the test compound is added to the culture media in ethanol to obtain concentrations of between 0 and 100 μM. One hour after the addition of the test compound, 2.0 μC of [^14 C]acetate is added to each well and the cells are allowed to incubate for an additional 2-3 hours. The cells are then harvested and extracted for analysis of ^14 C-labeled cholesterol, squalene monoepoxide and squalene diepoxide. These metabolites are separated and identified by a combination of high performance liquid chromatography and flow-through liquid scintillation spectroscopy. An IC50 for the inhibition of [^14 C]cholesterol biosynthesis is calculated based on the radioactivity in controls and treated cells.

I10 purified enzyme (percent inhibition of oxidosqualene cyclase activity at 10 μM test compound) (Oxidosqualene cyclase)	IC50 [1]	SMILES
100%	52 µM	CC(C)CCSCCCCC(=O)N1CC[C@H]2[C@H](C)[C@@H](O)CC[C@]2(C)C1 (relative stereo) [Example 100905, N-[1-Oxo-5-(3-methylbutylmercapto)pentyl]-8-aza-4α,10-dimethyl-trans-decal-3β-ol]
–	0.7 µM	CCCCCCCCCCCC(=O)N1CC[C@H]2[C@H](C)[C@@H](O)CC[C@]2(C)C1 (relative stereo) [Example 102417, N-(1-Oxododecyl)-8-aza-4α,10-dimethyl-trans-decal-3β-ol]
